Patent US20260199281A1, “NEW USE OF SIVELESTAT” (SHANGHAI HUILUN PHARMACEUTICAL CO., LTD., priority 2022, published 2026)

Tests used:
[1] = tested on: carrageenan-induced pain models; assay: Determination of mechanical pain thresholds (electronic Von Frey Hairs), carrageenan-induced pain models; assay type: in vivo, SD male rats; settings: for Relative value of Von Frey Hairs: single dose, mean ± SD
Procedure: The experimental results were expressed as “mean±standard deviation”. The data of each group were statistically analyzed using the SPSS16.0 software package to compare whether there were statistical differences among the groups. P<0.05 indicated a statistical difference. A total of 72 SD male rats aged 6 to 8 weeks, with body weights of 188-208 g, were divided into 9 groups, with 8 rats in each group. […] Then 20 mL of normal saline was added to the glass bottle. The glass bottle was placed on a magnetic stirrer, and magnetic stirring was performed for 6 hours to obtain a 3% carrageenan solution. The carrageenan solution was stored at 4° C. • 1 Fasting: no • 2 Administration route: IP (intraperitoneal injection) • 3 Administration volume: 5 mL/kg • 4 Administration frequency: single-dose administration • 5 Time of administration: administered immediately after induction Sivelestat sodium: 26 mg of sivelestat sodium (corresponding to a dosage of 10 mg/kg) was weighed. Part of normal saline was added, and sonication and vortexing were performed. The pH was adjusted with […] until a homogeneous solution was obtained, and finally, the volume was made up to 13.0 mL. Experimental samples with other dosages (30 mg/kg, 100 mg/kg) could be prepared according to the specific dosages with reference to a similar method. Parecoxib: 24 mg of parecoxib (corresponding to a dosage of 10 mg/kg) was weighed. Part of normal saline was added, and sonication and vortexing were performed. The pH was adjusted with 10 mol NaOH until a homogeneous solution was obtained, and finally, the volume was made up to 12.0 mL. Experimental samples with other dosages (20 mg/kg) could be prepared according to the specific dosages with reference to a similar method. Samples of other COX-2 inhibitors were prepared with reference to the similar method described above. [table] The animals were placed in a specially designed multi-unit metal mesh cage for pain detection, and allowed to acclimate to the environment for 10 minutes. After the grooming and exploratory activities of the animals ceased and the animals adapted to the detection environment, the sole of the hind limb on the side where carrageenan was injected in the rats was stimulated with electronic Von Frey Hairs. […] The value of the Von Frey Hairs at this time, which was the threshold of the mechanical pain response, was recorded with “gram” as the unit of detection. The detection was repeated twice. Then the mean value was taken as the final detection index. The determination of mechanical pain thresholds was performed at a total of 5 time points, including before administration and 1 h, 3 h, 4 h and 6 h after administration.

[2] = tested on: carrageenan-induced pain models; assay: Determination of paw swelling volumes, carrageenan-induced pain models; assay type: in vivo, SD male rats; settings: for Relative value of paw volumes: single dose, mean ± SD
Procedure: The experimental results were expressed as “mean±standard deviation”. The data of each group were statistically analyzed using the SPSS16.0 software package to compare whether there were statistical differences among the groups. P<0.05 indicated a statistical difference. A total of 72 SD male rats aged 6 to 8 weeks, with body weights of 188-208 g, were divided into 9 groups, with 8 rats in each group. […] Then 20 mL of normal saline was added to the glass bottle. The glass bottle was placed on a magnetic stirrer, and magnetic stirring was performed for 6 hours to obtain a 3% carrageenan solution. The carrageenan solution was stored at 4° C. • 1 Fasting: no • 2 Administration route: IP (intraperitoneal injection) • 3 Administration volume: 5 mL/kg • 4 Administration frequency: single-dose administration • 5 Time of administration: administered immediately after induction Sivelestat sodium: 26 mg of sivelestat sodium (corresponding to a dosage of 10 mg/kg) was weighed. Part of normal saline was added, and sonication and vortexing were performed. The pH was adjusted with […] until a homogeneous solution was obtained, and finally, the volume was made up to 13.0 mL. Experimental samples with other dosages (30 mg/kg, 100 mg/kg) could be prepared according to the specific dosages with reference to a similar method. Parecoxib: 24 mg of parecoxib (corresponding to a dosage of 10 mg/kg) was weighed. Part of normal saline was added, and sonication and vortexing were performed. The pH was adjusted with 10 mol NaOH until a homogeneous solution was obtained, and finally, the volume was made up to 12.0 mL. Experimental samples with other dosages (20 mg/kg) could be prepared according to the specific dosages with reference to a similar method. Samples of other COX-2 inhibitors were prepared with reference to the similar method described above. [table] To measure the paw swelling volumes (paw volumes) of experimental rats, the animals were gently held with one hand, and their hind paws were placed into the instrument used to measure the paw volumes with the other hand. The size of the paw volume was recorded. The measurement was repeated twice, and the mean value was taken as the paw volume of the animals.

[3] = tested on: carrageenan-induced pain models; assay: Determination of thermal radiation (thermal pain threshold), carrageenan-induced pain models; assay type: in vivo, SD male rats; settings: for Relative value of thermal radiation: single dose, mean ± SD
Procedure: The experimental results were expressed as “mean±standard deviation”. The data of each group were statistically analyzed using the SPSS16.0 software package to compare whether there were statistical differences among the groups. P<0.05 indicated a statistical difference. A total of 72 SD male rats aged 6 to 8 weeks, with body weights of 188-208 g, were divided into 9 groups, with 8 rats in each group. […] Then 20 mL of normal saline was added to the glass bottle. The glass bottle was placed on a magnetic stirrer, and magnetic stirring was performed for 6 hours to obtain a 3% carrageenan solution. The carrageenan solution was stored at 4° C. • 1 Fasting: no • 2 Administration route: IP (intraperitoneal injection) • 3 Administration volume: 5 mL/kg • 4 Administration frequency: single-dose administration • 5 Time of administration: administered immediately after induction Sivelestat sodium: 26 mg of sivelestat sodium (corresponding to a dosage of 10 mg/kg) was weighed. Part of normal saline was added, and sonication and vortexing were performed. The pH was adjusted with […] until a homogeneous solution was obtained, and finally, the volume was made up to 13.0 mL. Experimental samples with other dosages (30 mg/kg, 100 mg/kg) could be prepared according to the specific dosages with reference to a similar method. Parecoxib: 24 mg of parecoxib (corresponding to a dosage of 10 mg/kg) was weighed. Part of normal saline was added, and sonication and vortexing were performed. The pH was adjusted with 10 mol NaOH until a homogeneous solution was obtained, and finally, the volume was made up to 12.0 mL. Experimental samples with other dosages (20 mg/kg) could be prepared according to the specific dosages with reference to a similar method. Samples of other COX-2 inhibitors were prepared with reference to the similar method described above. [table] The animals were placed in a transparent plastic box, and could be allowed to acclimatize for 10 minutes before the test. The middle of the plantar surface of the hind limb on the side where carrageenan was injected in the rats was irradiated with a radiant heat light source to determine their thermal pain threshold. The detection was repeated twice. Then the mean value was taken as the final detection index.

[4] = tested on: rat models of post-operative pain; assay: Mechanical hyperalgesia test in rat models of post-operative pain; assay type: in vivo, Male SD rats; settings: used alone, i.p., single dose
Procedure: Male SD rats were acclimated to the test environment for 3 days before modeling. On the day of modeling, the animals were anesthetized with Zoletil 50+xylazine hydrochloride (20 mg/kg+8 mg/kg, intraperitoneal injection). A longitudinal incision of approximately 1 cm in length was made towards the toes at a position 0.7-0.8 cm from the heel of the left hind paw of the animals. After the skin was incised, the flexor digitorum brevis muscle was lifted, and a longitudinal blunt injury was inflicted. On the first day after the operation, the model animals were randomly divided into 7 groups according to the baseline values of mechanical hyperalgesia.
Two-way analysis of variance with the Bonferroni's multiple comparison test was performed.

[5] = 10 mg/kg intraperitoneal, 1 hour after administration
[6] = 10 mg/kg intraperitoneal, 3 hours after administration
[7] = 10 mg/kg intraperitoneal, 4 hours after administration
[8] = 10 mg/kg intraperitoneal, 6 hours after administration
[9] = 20 mg/kg intraperitoneal, 1 hour after administration
[10] = 20 mg/kg intraperitoneal, 3 hours after administration
[11] = 20 mg/kg intraperitoneal, 4 hours after administration
[12] = 20 mg/kg intraperitoneal, 6 hours after administration
[13] = 30 mg/kg intraperitoneal, 1 hour after administration
[14] = 30 mg/kg intraperitoneal, 3 hours after administration
[15] = 30 mg/kg intraperitoneal, 4 hours after administration
[16] = 30 mg/kg intraperitoneal, 6 hours after administration
[17] = 100 mg/kg intraperitoneal, 1 hour after administration
[18] = 100 mg/kg intraperitoneal, 3 hours after administration
[19] = 100 mg/kg intraperitoneal, 4 hours after administration
[20] = 100 mg/kg intraperitoneal, 6 hours after administration
[21] = used alone at 10, 30 and 100 mg/kg

## CCC(=O)NS(=O)(=O)c1ccc(-c2c(-c3ccccc3)noc2C)cc1 [parecoxib]
[1]; [5]
  Relative value of Von Frey Hairs: 13.6 ± 5.9 %
[1]; [6]
  Relative value of Von Frey Hairs: 16.4 ± 4.2 %
[1]; [7]
  Relative value of Von Frey Hairs: 15.1 ± 4.5 %
[1]; [8]
  Relative value of Von Frey Hairs: 11.9 ± 5.8 %
[1]; [9]
  Relative value of Von Frey Hairs: 13.7 ± 7.5 %
[1]; [10]
  Relative value of Von Frey Hairs: 17.3 ± 7.9 %
[1]; [11]
  Relative value of Von Frey Hairs: 16.2 ± 4.2 %
[1]; [12]
  Relative value of Von Frey Hairs: 12.4 ± 3.9 %
[2]; [5]
  Relative value of paw volumes: 4.34 ± 25.02%
[2]; [6]
  Relative value of paw volumes: 24.76 ± 11.32 %
[2]; [7]
  Relative value of paw volumes: 22.58 ± 18.82 %
[2]; [8]
  Relative value of paw volumes: 20.81 ± 12.66 %
[2]; [9]
  Relative value of paw volumes: 18.58 ± 45.76%
[2]; [10]
  Relative value of paw volumes: 31.45 ± 25.56 %
[2]; [11]
  Relative value of paw volumes: 19.47 ± 23.41%
[2]; [12]
  Relative value of paw volumes: 23.95 ± 15.74 %
[3]; [5]
  Relative value of thermal radiation: 34.6 ± 18.9 %
[3]; [6]
  Relative value of thermal radiation: 16.6 ± 16.7%
[3]; [7]
  Relative value of thermal radiation: 22.7 ± 13.8 %
[3]; [8]
  Relative value of thermal radiation: 14.6 ± 11.0 %
[3]; [9]
  Relative value of thermal radiation: 45.8 ± 25.1 %
[3]; [10]
  Relative value of thermal radiation: 58.5 ± 22.3 %
[3]; [11]
  Relative value of thermal radiation: 37.4 ± 26.7%
[3]; [12]
  Relative value of thermal radiation: 38.0 ± 11.0 %

## CC(C)(C)C(=O)Oc1ccc(S(=O)(=O)Nc2ccccc2C(=O)NCC(=O)O)cc1 [sivelestat sodium]
[1]; [5]
  Relative value of Von Frey Hairs: 17.1 ± 5.5 %
[1]; [6]
  Relative value of Von Frey Hairs: 15.3 ± 5.9 %
[1]; [7]
  Relative value of Von Frey Hairs: 11.5 ± 6.1 %
[1]; [8]
  Relative value of Von Frey Hairs: 4.8 ± 4.4 %
[1]; [13]
  Relative value of Von Frey Hairs: 18.9 ± 5.9 %
[1]; [14]
  Relative value of Von Frey Hairs: 15.6 ± 7.5 %
[1]; [15]
  Relative value of Von Frey Hairs: 15.2 ± 4.2 %
[1]; [16]
  Relative value of Von Frey Hairs: 4.1 ± 5.0%
[1]; [17]
  Relative value of Von Frey Hairs: 20.4 ± 3.9 %
[1]; [18]
  Relative value of Von Frey Hairs: 18.1 ± 3.7 %
[1]; [19]
  Relative value of Von Frey Hairs: 15.5 ± 4.3 %
[1]; [20]
  Relative value of Von Frey Hairs: 7.9 ± 4.5 %
[1]; [21]
  analgesic efficacy in the mechanical pain threshold test: significant analgesic efficacy
[2]; [5]
  Relative value of paw volumes: 4.86 ± 19.10%
[2]; [6]
  Relative value of paw volumes: 8.96 ± 13.90%
[2]; [7]
  Relative value of paw volumes: 1.67 ± 15.59%
[2]; [8]
  Relative value of paw volumes: 3.70 ± 14.04%
[2]; [13]
  Relative value of paw volumes: 20.49 ± 41.12%
[2]; [14]
  Relative value of paw volumes: 17.37 ± 17.14%
[2]; [15]
  Relative value of paw volumes: 14.09 ± 18.97%
[2]; [16]
  Relative value of paw volumes: 14.94 ± 18.68%
[2]; 100 mg/kg alone, 6 h after administration
  anti-inflammatory effect (paw volumes): significant anti-inflammatory effect
[2]; [17]
  Relative value of paw volumes: 3.99 ± 24.23%
[2]; [18]
  Relative value of paw volumes: 18.24 ± 11.26%
[2]; [19]
  Relative value of paw volumes: 13.64 ± 15.23%
[2]; [20]
  Relative value of paw volumes: 19.27 ± 11.40 %
[2]; [21]
  anti-inflammatory effect (paw volumes) compared with the model group: a certain anti-inflammatory effect
[4]
  effect on post-operative pain (mechanical hyperalgesia): significant effect
[3]; [5]
  Relative value of thermal radiation: 10.3 ± 28.7%
[3]; [6]
  Relative value of thermal radiation: 19.8 ± 14.0 %
[3]; [7]
  Relative value of thermal radiation: 3.7 ± 5.1%
[3]; [8]
  Relative value of thermal radiation: 4.2 ± 6.2%
[3]; [13]
  Relative value of thermal radiation: 20.9 ± 39.4%
[3]; [14]
  Relative value of thermal radiation: 18.0 ± 21.4%
[3]; [15]
  Relative value of thermal radiation: 4.0 ± 9.3%
[3]; [16]
  Relative value of thermal radiation: 9.2 ± 4.4%
[3]; [17]
  Relative value of thermal radiation: 24.0 ± 41.2%
[3]; [18]
  Relative value of thermal radiation: 22.3 ± 18.0 %
[3]; [19]
  Relative value of thermal radiation: 13.1 ± 11.0%
[3]; [20]
  Relative value of thermal radiation: 5.4 ± 8.1%
[3]; used alone at 10 mg/kg and 100 mg/kg, 3 hours after administration
  analgesic efficacy in the thermal pain threshold test: significant analgesic efficacy
